This passage reports TGI and GI50 results from PubChem BioAssay (NCI).

Holding throughout (assay): NCI tumour cell line growth inhibition, 48 h
In assay [1] the test system is DU-145 prostate.
The subject of assay [2] is SNB-75 CNS.
Assay [3] concerns OVCAR-4 ovarian.
In assay [4] the test system is K-562 leukemia.
In assay [5] the test system is HOP-62 NSCLC.
Assay [6] concerns U251 CNS.
In assay [7] the test system is SF-268 CNS.
Assay [8] deals with SK-MEL-5 melanoma.
For assay [9], the system named is UO-31 renal.

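Exposure lasted 48 hours, with cells grown in 96-well plates and compounds tested at five concentrations. At the GI50, growth is halved. TGI: concentration producing complete growth inhibition.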

Regarding `CCc1cc2c(c3c1CCCC3=O)CC1(Cc3ccc(C(=O)OC)cc3C1)C2` (stereo unspecified), the TGI in assay [1], in assay [2], in [3], in [4], in assay [5] and in [6] was over 100 µM each time. Besides, the TGI in assay [7] is over 100 µM; in [8], 30.1 µM; in assay [9], over 100 µM.
`O=c1c(-c2ccccc2)c(SCCO)n(-c2ccccc2)c(=S)n1-c1ccccc1`: the TGI in assay [1], in assay [2], in [3], in assay [4], in assay [5] and in assay [6] was over 100 µM in each case. The TGI in assay [7], in assay [8] and in assay [9] was over 100 µM each time.
Take `COC(=O)C1C(=O)N(C)C(=O)N2CCCC12` (stereo unspecified): the TGI in assay [1], in assay [2], in assay [3], in assay [4], in [5] and in assay [6] was over 100 µM throughout. The TGI in assay [7], in [8] and in assay [9] was over 100 µM in each case.
Turning to `O=C1NC(=O)C(C(CC(=O)c2ccc(Cl)cc2)c2ccc(Cl)cc2)C(=O)N1` (stereo unspecified), the TGI in [1], in [2], in assay [3], in assay [4], in assay [5] and in assay [6] was over 100 µM in each case. For the same molecule, the TGI in assay [7], in assay [8] and in assay [9] was over 100 µM throughout.
With `O=C(CCN1CCN2c3ccccc3CCC2C1)c1ccc(F)cc1` (stereo unspecified), the TGI in assay [1] was 90.3 µM; in assay [2], 44.8 µM; in [3] it was 37.8 µM; in assay [4], over 100 µM; in [5] it was 52.8 µM; in assay [6], over 100 µM. Also, the results for the TGI in assay [7], in assay [8] and in [9] were over 100 µM, 49.9 µM and 40.8 µM, respectively.
Consider `NNC(=O)C1(NC(=O)c2ccccc2)C(c2ccccc2)C(c2ccccc2)=NN1c1ccccc1` (stereo unspecified), for which the TGI in assay [1], in assay [2], in assay [3], in assay [4], in [5] and in assay [6] was over 100 µM each time. The TGI in assay [7], in [8] and in assay [9] was over 100 µM each time.
Consider `Cc1cc(C)c2c(c1)C(=O)/C(=C/c1ccccc1C(=O)O)C2`, for which the TGI in [1], in assay [2], in assay [3], in assay [4], in assay [5] and in assay [6] was over 100 µM each time. For the same molecule, the TGI in [7], in assay [8] and in assay [9] was over 100 µM each time.
Regarding `COc1ccc(OC)c(SC(CC(=O)c2ccccc2)c2ccccc2)c1` (stereo unspecified), the TGI in assay [1] is 21.9 µM; in assay [2], 33.6 µM; in [3] it was over 100 µM; in assay [4] it was over 100 µM; in assay [5] it was 39.8 µM; in assay [6] it was 31 µM. In addition, the TGI in [7] was found to be 40.2 µM; in assay [8], 28.7 µM; in [9], 24.7 µM.
As for `C/C(=N\Nc1nc2ccccc2n1C)c1cc2ccccc2cn1`, the TGI in [1] was 8.08 µM; in assay [2], 11.8 µM; in [3], 13 µM; in assay [4], over 100 µM; in assay [5], over 26.3 µM; in [6] it was 4.59 µM. Moreover, the values for the TGI in assay [7], in assay [8] and in [9] were 11.7 µM, 12.4 µM and 5.03 µM, respectively.
With `O=C(c1cccs1)N1CCN(C(=O)c2cccs2)C1=S`, the TGI in [1] is 7.7 µM; in assay [2], 11.7 µM; in [3], 32.3 µM; in assay [4], over 45.2 µM; in [5], 18.8 µM; in [6], 18.2 µM. Further, the TGI in assay [7] is 20 µM; in assay [8], 18.2 µM; in assay [9] it was 8.5 µM.
Turning to `COc1ccc2[nH]c(O)c(/C=c3/cc4c(c(-c5ccc(F)c(OC)c5)n3)=Nc3ccccc3-4)c2c1`, the GI50 in assay [1] was 4.11 µM; in assay [2] it was 1.56 µM; in assay [3], 3.53 µM; in [4], 3.16 µM; in assay [5] it was 2.42 µM; in assay [6] it was 1.7 µM. Moreover, the GI50 in assay [7] is 3.68 µM; in assay [8], 3.07 µM; in [9] it was 3.86 µM. Also, the TGI stood at 32.6 µM in assay [1]; 3.56 µM in assay [2]; 16.3 µM in assay [3]; 10.2 µM in assay [4]; 4.88 µM in [5]; 3.21 µM in assay [6]. Besides, the TGI in assay [7] was 18 µM; in assay [8], 22 µM; in [9], 18.8 µM.
As to `C#CCn1c(=O)c(C)cn(/C(=C\C(=O)OCC)C(=O)OCC)c1=O`, the TGI is 35 µM in [1]; 36 µM in assay [2]; 6.35 µM in assay [3]; over 100 µM in assay [4]; 39.2 µM in assay [5]; 15 µM in assay [6]. Besides, the TGI was 35.7 µM in assay [7], over 100 µM in assay [8] and 25.5 µM in [9].
As for `O=C1CC(=O)n2cnc3cccc(c32)N1`, the TGI in [1], in assay [2], in assay [3], in assay [4], in assay [5] and in assay [6] was over 100 µM throughout. In addition, the TGI in [7], in assay [8] and in assay [9] was over 100 µM throughout.
